Experiments:
[1] = molecular target: mSTING (Mus musculus, UniProt Q3TBT3); assay: Radiometric filtration binding competition assay, mSTING
[2] = molecular target: hSTING-WT (Homo sapiens (Human), UniProt Q86WV6, H232R); assay: Radiometric filtration binding competition assay, hSTING-WT
[3] = molecular target: hSTING-R232 (Homo sapiens (Human), UniProt Q86WV6, H232R); assay: STING differential scanning fluorimetry (DSF) assay, WT human STING; settings: WT (R232) human STING aa140-379, net shift in melting temperature
hSTING-R232, sequence (Q86WV6 140-379 H232R): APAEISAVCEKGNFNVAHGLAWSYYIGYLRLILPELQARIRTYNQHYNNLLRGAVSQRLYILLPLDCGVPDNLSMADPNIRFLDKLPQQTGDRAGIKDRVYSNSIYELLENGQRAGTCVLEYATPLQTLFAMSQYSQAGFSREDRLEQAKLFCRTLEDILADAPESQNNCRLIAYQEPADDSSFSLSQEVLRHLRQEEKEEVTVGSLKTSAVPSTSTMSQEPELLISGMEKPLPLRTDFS
Procedure: A STING DSF assay was performed to determine protein thermostability shift in response to small molecule ligand binding. A STING thermostability shift assay based on differential scanning fluorimetry was used to measure (1) the net shift in melting temperature (ΔTm)between the apo and ligand-bound states of the STING protein and (2) the concentration of the thermal denaturation transition (EC50) as a surrogate measure of binding affinity (K). […] Protein in assay buffer was transferred to a 384 well plate and incubated with the hydrophobic fluorescent dye SYBR Orange. A temperature ramp was applied to the plate and the resulting dye fluorescence was plotted as a function of temperature. The first derivative of this function (dF/dT) was then used to extrapolate the melting temperature of the protein at various concentrations of compound and determine the thermal denaturation profile of a protein/compound complex.
• 1. Protein construct (affinity tag removal vs SUMO-fusion construct) • 2. Protein concentration • 3. Dye concentration • 4. Buffer • 5. Thermal ramp velocity • 6. DMSO tolerance • 7. Compound titration parameters • 8. […] 5 μM purified Target STING Protein • 3. 8 μM Sypro Orange Dye • 4. Buffer: 100 mM NaCl, 30 mM HEPES, pH 7.5 • 5. Thermal Ramp: 0.5° C./min • 6. <1% DMSO • 7. 11 point, 2 fold dilution, duplicate, 300 μM high concentrations • 8.

[4] = molecular target: STING protein (Homo sapiens (Human), UniProt Q86WV6, H232R); assay: Cell based reporter assay of IRF activation (IRF-luciferase), THP1-dual-KI R232; settings: read-out: THP1-dual-KI R232_IRF(Luciferase)_Activity Maximum measured (%)
STING protein, sequence (Q86WV6 whole entry H232R): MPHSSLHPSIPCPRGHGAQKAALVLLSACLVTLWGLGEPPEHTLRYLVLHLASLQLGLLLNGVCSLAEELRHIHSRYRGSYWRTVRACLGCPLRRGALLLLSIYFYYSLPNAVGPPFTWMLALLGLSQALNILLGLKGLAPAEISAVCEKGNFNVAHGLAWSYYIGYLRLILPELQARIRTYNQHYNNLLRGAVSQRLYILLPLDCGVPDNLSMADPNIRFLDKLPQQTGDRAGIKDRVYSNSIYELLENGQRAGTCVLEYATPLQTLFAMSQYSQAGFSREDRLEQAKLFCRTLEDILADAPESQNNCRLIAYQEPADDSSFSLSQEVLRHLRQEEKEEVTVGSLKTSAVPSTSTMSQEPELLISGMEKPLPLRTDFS

hSTING-WT, sequence (Q86WV6 140-379 H232R): as the sequence (Q86WV6 140-379 H232R) above

SMILES | IC50 [1] | IC50 [2] | WT_DSF_hSWAT Tm Shift (° C.) [3] | Emax [4]
O=C(O)Cn1c2cc(-c3ccoc3)ccc2c(=O)c2ccc(Cl)c(Cl)c21 [Compound 183] | 20 to 100 µM | 20 to 100 µM | C (“C” = 2-7° C,) | 25 to 50%
Cc1c(C(C)C)ccc2c(=O)c3ccc(Cl)c(Cl)c3n(CC(=O)O)c12 [Compound 193] | > 300 µM | 20 to 100 µM | A (“A” < 0° C.) | –
O=C(O)Cn1c2cc(N3CCCCC3)ccc2c(=O)c2ccc(Cl)c(Br)c21 [Compound 198] | 100 to 300 µM | 100 to 300 µM | C (“C” = 2-7° C,) | –
O=C(O)Cn1c2cc(C3=CCC(O)CC3)ccc2c(=O)c2ccc(Cl)c(Cl)c21 (stereo not drawn) [Compound 213] | 20 to 100 µM | 100 to 300 µM | C (“C” = 2-7° C,) | –
O=C(O)Cn1c2ccccc2c(=O)c2ccc(Cl)c(Oc3nccc4ccccc34)c21 [Compound 243] | 100 to 300 µM | 20 to 100 µM | A (“A” < 0° C.) | < 5%
COc1c(Cl)ccc2c(=O)c3ccc(C4CCCOC4)cc3n(CC(=O)O)c12 (stereo not drawn) [Compound 253] | 20 to 100 µM | 20 to 100 µM | D (“D” > 7° C.) | > 50%
O=C(O)Cn1c2ccccc2c(=O)c2ccc(Cl)c(-c3ccccc3)c21 [Compound 256] | 20 to 100 µM | 100 to 300 µM | C (“C” = 2-7° C,) | –
COc1c(Cl)ccc2c(=O)c3ccc(C(C)C)cc3n(CC(=O)NS(=O)(=O)C(F)(F)F)c12 [Compound 261] | 20 to 100 µM | 20 to 100 µM | C (“C” = 2-7° C,) | < 5%
COc1c(Cl)ccc2c(=O)c3cc(Br)c(C(C)C)cc3n(CC(=O)O)c12 [Compound 268] | 100 to 300 µM | 20 to 100 µM | C (“C” = 2-7° C,) | > 50%
CSc1c(Cl)ccc2c(=O)c3ccc(-c4ccc(O)cc4)cc3n(CC(=O)O)c12 [Compound 271] | < 20 µM | < 20 µM | D (“D” > 7° C.) | > 50%
C#CCOc1c(Cl)ccc2c(=O)c3ccccc3n(CC(=O)O)c12 [Compound 272] | > 300 µM | 100 to 300 µM | B (“B” = 0-2° C.) | < 5%
C=CCOc1c(Cl)ccc2c(=O)c3ccccc3n(CC(=O)O)c12 [Compound 273] | 20 to 100 µM | 20 to 100 µM | C (“C” = 2-7° C,) | > 50%
COc1c(Cl)ccc2c(=O)c3ccc(-c4cccc(N)c4)cc3n(CC(=O)O)c12 [Compound 275] | < 20 µM | 20 to 100 µM | D (“D” > 7° C.) | > 50%
CSc1c(Cl)ccc2c(=O)c3ccc(Nc4ncccn4)cc3n(CC(=O)O)c12 [Compound 276] | < 20 µM | < 20 µM | D (“D” > 7° C.) | > 50%
CSc1c(Cl)ccc2c(=O)c3ccc(C)cc3n(CC(=O)O)c12 [Compound 279] | 20 to 100 µM | 20 to 100 µM | D (“D” > 7° C.) | > 50%
CSc1c(Cl)ccc2c(=O)c3ccc(C(C)C)cc3n(CC(=O)O)c12 [Compound 281] | < 20 µM | < 20 µM | D (“D” > 7° C.) | > 50%
CCOc1c(Cl)ccc2c(=O)c3ccc(C)cc3n(CC(=O)O)c12 [Compound 282] | – | 20 to 100 µM | D (“D” > 7° C.) | > 50%
CCCOc1c(Cl)ccc2c(=O)c3ccccc3n(CC(=O)O)c12 [Compound 284] | – | > 300 µM | C (“C” = 2-7° C,) | 5 to 25%
Cc1ccc2c(=O)c3ccc(Cl)c(OCc4ccccc4)c3n(CC(=O)O)c2c1 [Compound 285] | 20 to 100 µM | 20 to 100 µM | D (“D” > 7° C.) | 25 to 50%

SMILES | IC50 [1] | IC50 [2] | WT_DSF_hSWAT Tm Shift (° C.) [3] | Emax [4]
COc1c(Cl)ccc2c(=O)c3ccc(Nc4ccccc4OC(F)(F)F)cc3n(CC(=O)O)c12 [Compound 286] | < 20 µM | < 20 µM | D (“D” > 7° C.) | > 50%
O=C(O)Cn1c2ccccc2c(=O)c2ccc(Cl)c(Oc3ccccc3)c21 [Compound 287] | – | > 300 µM | B (“B” = 0-2° C.) | < 5%
CC(C)Sc1c(Cl)ccc2c(=O)c3ccc(C(C)(C)C)cc3n(CC(=O)O)c12 [Compound 290] | 20 to 100 µM | < 20 µM | D (“D” > 7° C.) | 25 to 50%
C[C@H](Oc1c(Cl)ccc2c(=O)c3ccccc3n(CC(=O)O)c12)c1ccccc1 [Compound 295] | > 300 µM | 100 to 300 µM | A (“A” < 0° C.) | < 5%
C[C@@H](Oc1c(Cl)ccc2c(=O)c3ccccc3n(CC(=O)O)c12)c1ccccc1 [Compound 296] | > 300 µM | > 300 µM | A (“A” < 0° C.) | < 5%
CNc1ccc2c(=O)c3ccc(Cl)c(OC)c3n(CC(=O)O)c2c1 [Compound 299] | – | 20 to 100 µM | C (“C” = 2-7° C,) | > 50%
COc1c(Cl)ccc2c(=O)c3ccc(NC(C)C)cc3n(CC(=O)O)c12 [Compound 300] | – | 20 to 100 µM | C (“C” = 2-7° C,) | > 50%
O=C(O)Cn1c2cc(Cl)ccc2c(=O)c2ccc(Nc3ccccc3)cc21 [Compound 301] | < 20 µM | 20 to 100 µM | C (“C” = 2-7° C,) | < 5%
C[C@H](O)COc1c(Cl)ccc2c(=O)c3ccccc3n(CC(=O)O)c12 [Compound 302] | > 300 µM | > 300 µM | A (“A” < 0° C.) | < 5%
CCCCCCOc1c(Cl)ccc2c(=O)c3ccccc3n(CC(=O)O)c12 [Compound 303] | 100 to 300 µM | 20 to 100 µM | C (“C” = 2-7° C,) | 5 to 25%
CCSc1c(Cl)ccc2c(=O)c3ccc(C)cc3n(CC(=O)O)c12 [Compound 304] | < 20 µM | 20 to 100 µM | D (“D” > 7° C.) | > 50%
O=C(O)Cn1c2ccccc2c(=O)c2ccc(Cl)c(-c3cccnc3)c21 [Compound 334] | – | > 300 µM | C (“C” = 2-7° C,) | < 5%
CC(C)Nc1ccc2c(=O)c3ccc(Cl)c(-c4ccccc4)c3n(CC(=O)O)c2c1 [Compound 336] | – | < 20 µM | D (“D” > 7° C.) | > 50%
COc1c(Cl)ccc2c(=O)c3ccc(C)cc3n(CC(=O)NC#N)c12 [Compound 338] | – | 100 to 300 µM | C (“C” = 2-7° C,) | 25 to 50%
CONC(=O)Cn1c2cc(C)ccc2c(=O)c2ccc(Cl)c(OC)c21 [Compound 339] | – | > 300 µM | B (“B” = 0-2° C.) | 25 to 50%
COc1c(Cl)ccc2c(=O)c3ccc(C)cc3n(CC(=O)NS(C)(=O)=O)c12 [Compound 347] | – | 100 to 300 µM | C (“C” = 2-7° C,) | > 50%
COc1c(Cl)ccc2c(=O)c3ccc(C)cc3n(CC(=O)NS(=O)(=O)C3CC3)c12 [Compound 348] | – | 100 to 300 µM | C (“C” = 2-7° C,) | > 50%
CCS(=O)(=O)NC(=O)Cn1c2cc(C)ccc2c(=O)c2ccc(Cl)c(OC)c21 [Compound 349] | – | > 300 µM | C (“C” = 2-7° C,) | > 50%
CC(C)c1ccc2c(=O)c3ccc(Cl)c(Cl)c3n(CC(=O)NS(C)(=O)=O)c2c1 [Compound 352] | – | 20 to 100 µM | C (“C” = 2-7° C,) | > 50%

Source: US11414387B2, “Oxoacridinyl acetic acid derivatives and methods of use” (Stingthera, Inc., priority 2017, dated 2022)
